# “And” between values parts separate entries of the source, which are not always exact repeats. Identical values can stand only once. Like-named read-outs stand apart in the source and are kept apart here.
# Assays:
# [1] = Stability in cryopreserved hepatocytes, dog; type: in vitro ADME; settings: for Compound Remaining (% of 0 min): Hepatocyte Stability Dog, single replicates
# Method: (§1) The final incubation volume was 500 μL. Two control compounds (verapamil and donepezil) were included for each microsomal species, along with the appropriate vehicle control. The reactions were terminated by transferring 50 μL of incubate to 100 μL methanol containing an internal standard (metoprolol) at appropriate time points (0, 10, 20, 40, 60, and 120 min for the test compound and 0, 5, 10, 20, 40, and 60 min for the control compounds). The termination plates were centrifuged at 4000 x g at 4°C for 30 min to precipitate the protein. The supernatants were then collected for analysis, and LC-MS/MS was used for detection purposes. The system consisted of an Acquity™ Binary Solvent Manager, Acquity™ 4-position heated column manager, 2777 Ultra High Pressure Autosampler, and a Xevo-TQ MS triple quadrupole mass spectrometer (Waters Ltd., Herts, UK). This process was carried out twice.
# [2] = Stability in cryopreserved hepatocytes, monkey; type: in vitro ADME; settings: for Compound Remaining (% of 0 min): Hepatocyte Stability Monkey, single replicates
# Method: as §1
# [3] = Metabolite profiling, rat hepatocytes; type: in vitro ADME; settings: 10 μM CPL207280, 120 min, ND = not detected
# Method: Suspensions of cryopreserved human, rat, and monkey hepatocytes were pooled from a minimum of three individuals. All cryopreserved hepatocytes were purchased from a commercial supplier. […] The cell density was 0.5 ×10^6 viable cells/mL. The final DMSO concentration during the incubation was 0.25%. Control incubations were performed in lysed cells to reveal any non-enzymatic degradation. Two control compounds were identified in each species. Samples (50 μL) were removed from the incubation mixture at 0, 10, 20, 40, 60, and 120 min and added to methanol containing an internal standard (100 μL) to stop the reaction. The samples were centrifuged (4000 x g at 4°C for 30 min) and the supernatants at each time point were pooled for analysis by LC MS/MS using Cyprotex generic methods. Following hepatocyte stability assays, the samples were utilized for metabolite profiling. […] Metabolites were characterized using a mass spectrometer comprising Waters Xevo QT of G2-S, Acquity Binary Solvent Manager, Acquity Column Manager, and 2777 Autosampler.
# [4] = Repeat-dose study in diabetic cynomolgus monkeys, serum ALT and AST; type: in vivo; settings: 2.2 and 22 mg/kg, 28 treatment days
# Excerpt: All animals aged 8–20 years had ad libitum access to water and were fed twice daily with a complete nutritionally balanced diet (Beijing Keao Xieli Feed Co., LTD, Beijing, China) enriched with seasonal fruits. The cynomolgus monkeys used in the study were cared for and handled in accordance with all applicable Association for Assessment and Accreditation of Laboratory Animal Care regulations and guidelines. […] After each treatment (weighing, bleeding, or dosing), the animals were clinically observed on the day of the procedure and, if previously anesthetized, the animals were monitored to stand up and alert. Nine selected diabetic animals were subjected to daily test compound (powder) dosing via natural feeding with bananas (n = 3). Blood from overnight-fasted animals was collected weekly in the morning for measurement of serum ALT and AST levels on days 0, 7, 14, 21, 28, and 35. Blood samples (1.5 mL) were collected from a cephalic or saphenous vein into BD Vacutainer® and K2-EDTA tubes.
# HepaRG spheroids = test: HepaRG 3D spheroids, cell and mitochondrial health markers, 14 days; settings: for AC50: Homo sapiens, HepaRG
# Method: Hepatic spheroids were formed by seeding HepaRG™ cells into round-bottom ultra-low adhesion 96-well spheroid plates (Corning®) in 3D liver media with 0.5% DMSO, 100 U/mL penicillin, and 100 mg/L streptomycin. Cells were incubated at 37°C and 5% CO2 until spheroid formation and then compound-treated. The test compound was diluted in the vehicle, and serial dilutions were made in a 0.5% vehicle in HepaRG™ induction media. […] L-buthionine sulfoximine was used as positive control for GSH content, whereas rotenone was simultaneously used as a positive control for mitochondrial dysfunction and ATP content. At the end of the incubation period, the cells were loaded with the relevant dye for each cell health marker: DNA structure–Hoescht, GSH content–mBCL, ROS formation–DHE, mitochondrial dysfunction–MitoTracker, and cellular ATP content–CellTiter-Glo®, Promega. The plate was then scanned using an automated confocal fluorescent cellular imager, ArrayScan® XTI (Thermo Scientific Cellomics) at 37°C and 5% CO2. Further, the cellular ATP content was measured using CellTiter-Glo® (Promega, USA).
# [5] = Repeat-dose study in healthy Cynomolgus monkeys, safety (14 and 56 days)
# [6] = summary table, literature; cited from earlier work
# [7] = cited from earlier work
# hepatocytes = settings: read-out: IC50, hepatocyte toxicity, cited from earlier work
# [8] = cryopreserved hepatocytes (suspension), Dog (Beagle) hepatocytes, mean n = 2
# [9] = cryopreserved hepatocytes (suspension), Monkey (Cynomolgus) hepatocytes, mean n = 2
structure (smiles),measurement,setting,value
CC#C[C@@H](CC(=O)O)c1ccc(OCC(C)=C(C)C)cc1 [CPL207280],Compound Remaining (% of 0 min),[1]; 0 min,100 % of 0 min
same,Compound Remaining (% of 0 min),[1]; 10 min,93.0 % of 0 min and 92.9 % of 0 min
same,Compound Remaining (% of 0 min),[1]; 20 min,83.6 % of 0 min and 74.9 % of 0 min
same,Compound Remaining (% of 0 min),[1]; 40 min,73.0 % of 0 min and 74.7 % of 0 min
same,Compound Remaining (% of 0 min),[1]; 60 min,61.1 % of 0 min and 62.8 % of 0 min
same,Compound Remaining (% of 0 min),[1]; 120 min,65.2 % of 0 min and 60.1 % of 0 min
same,half-life at 3 μM,[1]; [8],3 h
same,microsomal CLint at 3 μM,[1]; [8],7.76 µL/min/mg
same,Compound Remaining (% of 0 min),[2]; 0 min,100 % of 0 min
same,Compound Remaining (% of 0 min),[2]; 10 min,65.3 % of 0 min and 63.2 % of 0 min
same,Compound Remaining (% of 0 min),[2]; 20 min,38.4 % of 0 min and 39.7 % of 0 min
same,Compound Remaining (% of 0 min),[2]; 40 min,17.5 % of 0 min and 19.5 % of 0 min
same,Compound Remaining (% of 0 min),[2]; 60 min,8.86 % of 0 min and 11.4 % of 0 min
same,Compound Remaining (% of 0 min),[2]; 120 min,8.94 % of 0 min and 8.99 % of 0 min
same,half-life at 3 μM,[2]; [9],0.283 h
same,microsomal CLint at 3 μM,[2]; [9],81.4 µL/min/mg
same,rat % of parent at 120 min,[3],57.6%
same,"liver safety markers (ALT, AST) vs vehicle group",[4],none of the doses altered liver safety markers
same,Cellular ATP Mean Plotted Value,"HepaRG spheroids; CONC 0.0457 uM, TIMEPOINT 336",0.883
same,DNA structure Mean Plotted Value,"HepaRG spheroids; CONC 0.0457 uM, TIMEPOINT 336",1.26
same,Glutathione content Mean Plotted Value,"HepaRG spheroids; CONC 0.0457 uM, TIMEPOINT 336",0.866
same,Mitochondrial mass Mean Plotted Value,"HepaRG spheroids; CONC 0.0457 uM, TIMEPOINT 336",0.982
same,Mitochondrial membrane potential Mean Plotted Value,"HepaRG spheroids; CONC 0.0457 uM, TIMEPOINT 336",1.25
same,Oxidative stress Mean Plotted Value,"HepaRG spheroids; CONC 0.0457 uM, TIMEPOINT 336",1.15
same,Spheroid count Mean Plotted Value,"HepaRG spheroids; CONC 0.0457 uM, TIMEPOINT 336",1
same,Spheroid size Mean Plotted Value,"HepaRG spheroids; CONC 0.0457 uM, TIMEPOINT 336",0.924
same,Cellular ATP Mean Plotted Value,"HepaRG spheroids; CONC 0.137 uM, TIMEPOINT 336",1.01
same,DNA structure Mean Plotted Value,"HepaRG spheroids; CONC 0.137 uM, TIMEPOINT 336",1.14
same,Glutathione content Mean Plotted Value,"HepaRG spheroids; CONC 0.137 uM, TIMEPOINT 336",1.11
same,Mitochondrial mass Mean Plotted Value,"HepaRG spheroids; CONC 0.137 uM, TIMEPOINT 336",0.911
same,Mitochondrial membrane potential Mean Plotted Value,"HepaRG spheroids; CONC 0.137 uM, TIMEPOINT 336",0.948
same,Oxidative stress Mean Plotted Value,"HepaRG spheroids; CONC 0.137 uM, TIMEPOINT 336",1.02
same,Spheroid count Mean Plotted Value,"HepaRG spheroids; CONC 0.137 uM, TIMEPOINT 336",1
same,Spheroid size Mean Plotted Value,"HepaRG spheroids; CONC 0.137 uM, TIMEPOINT 336",0.943
same,Cellular ATP Mean Plotted Value,"HepaRG spheroids; CONC 0.412 uM, TIMEPOINT 336",1.03
same,DNA structure Mean Plotted Value,"HepaRG spheroids; CONC 0.412 uM, TIMEPOINT 336",1.12
same,Glutathione content Mean Plotted Value,"HepaRG spheroids; CONC 0.412 uM, TIMEPOINT 336",1.09
same,Mitochondrial mass Mean Plotted Value,"HepaRG spheroids; CONC 0.412 uM, TIMEPOINT 336",1
same,Mitochondrial membrane potential Mean Plotted Value,"HepaRG spheroids; CONC 0.412 uM, TIMEPOINT 336",0.994
same,Oxidative stress Mean Plotted Value,"HepaRG spheroids; CONC 0.412 uM, TIMEPOINT 336",1.02
same,Spheroid count Mean Plotted Value,"HepaRG spheroids; CONC 0.412 uM, TIMEPOINT 336",1
same,Spheroid size Mean Plotted Value,"HepaRG spheroids; CONC 0.412 uM, TIMEPOINT 336",0.942
same,Cellular ATP Mean Plotted Value,"HepaRG spheroids; CONC 3.7 uM, TIMEPOINT 336",0.907
same,DNA structure Mean Plotted Value,"HepaRG spheroids; CONC 3.7 uM, TIMEPOINT 336",0.692
same,Glutathione content Mean Plotted Value,"HepaRG spheroids; CONC 3.7 uM, TIMEPOINT 336",0.924
same,Mitochondrial mass Mean Plotted Value,"HepaRG spheroids; CONC 3.7 uM, TIMEPOINT 336",0.944
same,Mitochondrial membrane potential Mean Plotted Value,"HepaRG spheroids; CONC 3.7 uM, TIMEPOINT 336",0.773
same,Oxidative stress Mean Plotted Value,"HepaRG spheroids; CONC 3.7 uM, TIMEPOINT 336",1.02
same,Spheroid count Mean Plotted Value,"HepaRG spheroids; CONC 3.7 uM, TIMEPOINT 336",1
same,Spheroid size Mean Plotted Value,"HepaRG spheroids; CONC 3.7 uM, TIMEPOINT 336",0.935
same,Cellular ATP Mean Plotted Value,"HepaRG spheroids; CONC 33.3 uM, TIMEPOINT 336",0.845
same,DNA structure Mean Plotted Value,"HepaRG spheroids; CONC 33.3 uM, TIMEPOINT 336",0.889
same,Glutathione content Mean Plotted Value,"HepaRG spheroids; CONC 33.3 uM, TIMEPOINT 336",0.907
same,Mitochondrial mass Mean Plotted Value,"HepaRG spheroids; CONC 33.3 uM, TIMEPOINT 336",0.989
same,Mitochondrial membrane potential Mean Plotted Value,"HepaRG spheroids; CONC 33.3 uM, TIMEPOINT 336",0.908
same,Oxidative stress Mean Plotted Value,"HepaRG spheroids; CONC 33.3 uM, TIMEPOINT 336",1.13
same,Spheroid count Mean Plotted Value,"HepaRG spheroids; CONC 33.3 uM, TIMEPOINT 336",1
same,Spheroid size Mean Plotted Value,"HepaRG spheroids; CONC 33.3 uM, TIMEPOINT 336",0.953
same,Cellular ATP Mean Plotted Value,"HepaRG spheroids; CONC 100 uM, TIMEPOINT 336",0.491
same,DNA structure Mean Plotted Value,"HepaRG spheroids; CONC 100 uM, TIMEPOINT 336",0.692
same,Glutathione content Mean Plotted Value,"HepaRG spheroids; CONC 100 uM, TIMEPOINT 336",0.767
same,Mitochondrial mass Mean Plotted Value,"HepaRG spheroids; CONC 100 uM, TIMEPOINT 336",0.865
same,Mitochondrial membrane potential Mean Plotted Value,"HepaRG spheroids; CONC 100 uM, TIMEPOINT 336",0.94
same,Oxidative stress Mean Plotted Value,"HepaRG spheroids; CONC 100 uM, TIMEPOINT 336",1.13
same,Spheroid count Mean Plotted Value,"HepaRG spheroids; CONC 100 uM, TIMEPOINT 336",1
same,Spheroid size Mean Plotted Value,"HepaRG spheroids; CONC 100 uM, TIMEPOINT 336",0.861
same,Cellular ATP MEC,"HepaRG spheroids; HepaRG spheroid, TIMEPOINT 336",24.8 (NS) uM
same,Cellular ATP MR (% @ concentration),"HepaRG spheroids; HepaRG spheroid, TIMEPOINT 336, at the concentration (uM) given",48%
same,Cellular ATP MR,"HepaRG spheroids; HepaRG spheroid, TIMEPOINT 336, plotted value at the concentration given",0.491
same,AC50,"HepaRG spheroids; 336 h, read-out: Estimated AC50 (95% CI), Cellular ATP",> 100 µM
same,AC50,"HepaRG spheroids; 336 h, read-out: Estimated AC50 (95% CI), DNA structure",> 100 µM
same,AC50,"HepaRG spheroids; 336 h, read-out: Estimated AC50 (95% CI), Glutathione content",> 100 µM
same,AC50,"HepaRG spheroids; 336 h, read-out: Estimated AC50 (95% CI), Mitochondrial mass",> 100 µM
same,AC50,"HepaRG spheroids; 336 h, read-out: Estimated AC50 (95% CI), Mitochondrial membrane potential",> 100 µM
same,AC50,"HepaRG spheroids; 336 h, read-out: Estimated AC50 (95% CI), Oxidative stress",> 100 µM
same,AC50,"HepaRG spheroids; 336 h, read-out: Estimated AC50 (95% CI), Spheroid count",> 100 µM
same,AC50,"HepaRG spheroids; 336 h, read-out: Estimated AC50 (95% CI), Spheroid size",> 100 µM
same,AC50,HepaRG spheroids; read-out: DNA structure AC50,> 100 µM
same,AC50,HepaRG spheroids; read-out: Glutathione content AC50,> 100 µM
same,AC50,HepaRG spheroids; read-out: Mitochondrial mass AC50,> 100 µM
same,AC50,HepaRG spheroids; read-out: Mitochondrial membrane potential AC50,> 100 µM
same,AC50,HepaRG spheroids; read-out: Oxidative stress AC50,> 100 µM
same,AC50,HepaRG spheroids; read-out: Spheroid count AC50,> 100 µM
same,AC50,HepaRG spheroids; read-out: Spheroid size AC50,> 100 µM
same,Mitochondria Injury,HepaRG spheroids; summary comparison CPL207280 vs TAK-875,<
same,liver safety parameters,"[5]; 50–250 mg/kg/day, 14 and 56 days",No alteration of liver safety parameters
same,hepatocyte hypertrophy and liver mass,[5]; after the 14 and 56-day treatment,neither hypertrophy nor increased liver mass was observed
"Cc1cc(OCCCS(C)(=O)=O)cc(C)c1-c1cccc(COc2ccc3c(c2)OC[C@H]3CC(=O)O)c1 [TAK-875, fasiglifam, reference compound]",Acyl glucuronide presence in human hepatocytes,[6],Yes
same,plasma protein binding (PPB),[7],> 99.4%
same,IC50,hepatocytes; time of incubation 24 h,68 µM
same,IC50,hepatocytes; time of incubation 48 h,56 µM
